Experimental data reported in PubChem BioAssay (NCI).
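In this assay, cells in 96-well plates receive the compound at five concentrations for 48 hours. Endpoints are linearly interpolated between the surrounding concentrations. GI50: concentration for 50% inhibition of growth. Definition used: TGI = concentration required for complete inhibition of growth.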

Key:
Experiment in all cases: NCI anticancer screen, dose series, 48 h
RPMI-8226 leukemia = system: RPMI-8226 leukemia
HCC-2998 colon = system: HCC-2998 colon
786-0 renal = system: 786-0 renal
OVCAR-5 ovarian = system: OVCAR-5 ovarian
SF-295 CNS = system: SF-295 CNS
IGROV1 ovarian = system: IGROV1 ovarian
SN12C renal = system: SN12C renal
COLO 205 colon = system: COLO 205 colon
SF-268 CNS = system: SF-268 CNS
NCI-H522 lung = system: NCI-H522 lung

Compound | TGI (RPMI-8226 leukemia) [µM] | TGI (HCC-2998 colon) [µM] | TGI (786-0 renal) [µM] | TGI (OVCAR-5 ovarian) [µM] | TGI (SF-295 CNS) [µM] | TGI (IGROV1 ovarian) [µM] | TGI (SN12C renal) [µM] | TGI (COLO 205 colon) [µM] | TGI (SF-268 CNS) [µM] | TGI (NCI-H522 lung) [µM] | GI50 (HCC-2998 colon) [µM] | GI50 (NCI-H522 lung) [µM] | GI50 (OVCAR-5 ovarian) [µM] | GI50 (SF-295 CNS) [µM] | GI50 (SF-268 CNS) [µM]
S=C(S)NCNC(=S)S.[Zn+2] | > 100 | > 100 | > 100 | > 100 | > 100 | > 100 | > 100 | > 100 | > 100 |  |  |  |  |  | 
CCOC(=O)C12OC(CCC1=O)C(C(=O)OC)=C2C(=O)OC (stereo unspecified) | > 10 | > 10 | > 10 | > 10 | > 10 | > 10 | > 10 | > 10 | > 10 | > 10 |  |  |  |  | 
Cn1c(=O)n(C2(C)C[Se]C2)c2ccccc21 | > 100 | > 100 | > 100 | > 100 | > 100 | > 100 | > 100 | > 100 | > 100 | > 100 |  |  |  |  | 
O=c1c(/C=C/c2c(O)ccc3ccccc23)nnc2sc(-c3cccc(Br)c3)nn12 | > 100 | 89 | > 100 | > 100 | > 100 | 15.8 |  | > 100 | > 100 | 42.3 |  |  |  |  | 
Fc1cc(-c2cc(-c3ccccc3)no2)c(Cl)cc1Cl | 34 | > 72 | > 33.6 | > 42.9 | > 49.4 | > 50.8 | > 54.4 | > 16.2 | > 54.2 | > 34.5 |  |  |  |  | 
O=C(Cn1c[n+](CC(=O)c2ccc(-c3ccccc3)cc2)c2ccccc21)Nc1cccc2cccnc12 |  | 2.74 |  | 2.84 | 3.26 |  |  |  |  | 3.25 | 1.4 | 1.53 | 1.5 | 1.73 | 
N#Cc1c2ccccc2cn1-c1ccc(F)cc1 | 61.2 | > 100 | > 100 | > 100 | > 100 | > 100 |  | 61.7 | 99.5 | 43.2 |  |  |  |  | 
COC(=O)c1ccccc1/C=C1\Cc2ccc(C)c(C)c2C1=O | > 100 | > 100 | > 100 | > 100 | > 100 | > 100 | > 100 | > 100 | > 100 | > 100 |  |  |  |  | 
NNC(=O)c1n[nH]nc1C(=O)NN | > 100 | > 100 | 28.8 | > 100 | > 100 |  | > 100 | > 100 | > 100 |  |  |  |  |  | 
CC(C)C(=O)OCC1OC(n2c(Br)nc3c(=O)[nH]c(N)nc32)C(OC(=O)C(C)C)C1OC(=O)C(C)C (stereo unspecified) |  |  | 65.3 | > 100 | 56.7 |  | > 100 | > 100 | > 100 | > 100 |  |  |  |  | 
CCOC1OC(=O)c2cc3ccc4c(c3c(-c3ccc5c(c3)OCO5)c21)OCO4 (stereo unspecified) | > 100 | 20.3 | > 100 | > 100 | 8.14 | > 100 | > 100 | 5.16 | > 100 | 6.9 |  |  |  |  | 
COc1ccc(S(=O)(=O)c2nnc(S(=O)(=O)Cc3ccccc3)s2)cc1 | > 100 |  | 62.1 | 54.5 | 90.1 |  | 52.9 | 28.5 | > 100 | 27.1 |  |  |  |  | 
O=C(O)C(NCc1ccccc1)C(NCc1ccccc1)C(=O)O (stereo unspecified) | > 100 | > 100 | > 100 |  | > 100 | > 100 | > 100 | > 100 | > 100 | > 100 |  |  |  |  | 
Cc1ccc(-n2c(N)c(C#N)c3[nH]nc(N)c3c2=O)cc1 | > 100 | > 100 | > 100 |  | > 100 | > 100 |  | > 100 | > 100 |  |  |  |  |  | 
CC(=O)Oc1ccc2c(C)cc(=O)oc2c1OC(C)=O | 89.9 |  | > 100 | > 100 | > 100 | 92.9 | > 100 | > 100 | > 100 |  |  |  |  |  | 
CCC(C)OC(=O)/C(Br)=C1/OC(=O)c2ccccc2-c2ccccc21 (stereo unspecified) | 87.9 | 39.4 | > 100 | > 100 | > 100 |  | > 100 | 38.1 | > 100 | 44.3 |  |  |  |  | 
CCCCCCOC(=O)/C=C/[C@]1(CO)C/C(=C/CC(C(C)C)C(C)C)C(=O)O1 | 56.1 | 6.18 | 17.6 | 25.6 | 29.8 | 28.9 |  |  | 23.5 | 25.9 |  |  |  |  | 
C=C(C)[C@@H]1CC[C@]2(C(=O)NC3CCCCC3)CC[C@]3(C)[C@H](CC[C@@H]4[C@@]5(C)CCCNC(C)(C)[C@@H]5CC[C@]43C)[C@@H]12 |  |  |  |  |  |  |  |  | 26 |  |  |  |  |  | 5.29
Nc1ncnc2c1ncn2[C@@H]1C[C@@H]1CO | > 100 | > 100 | > 100 | > 100 | > 100 |  | > 100 |  |  | > 100 |  |  |  |  | 
CCOC(=O)NC(Nc1ccc(S(=O)(=O)Nc2nc(C)cc(C)n2)cc1)(C(=O)OCC)C(F)(F)F (stereo unspecified) | > 100 | > 100 | > 100 | > 100 | > 100 | > 100 | > 100 | > 100 | > 100 |  |  |  |  |  | 
CN(CC(=O)O)c1ncc2c(n1)CCCC2 | > 100 |  | > 100 | > 100 | > 100 | > 100 | > 100 | > 100 | > 100 | > 100 |  |  |  |  | 
O=C(O)CCC(NC(=O)c1ccc(Nc2nc3cc(C(F)(F)F)ccc3nc2-c2ccccc2)cc1)C(=O)O (stereo unspecified) | > 100 | > 100 |  | > 100 | > 100 | > 100 | > 100 | > 100 | > 100 | > 91.6 |  |  |  |  | 
CC1(C)N=C(N)N=C(N)N1c1ccc(CCc2ccccc2)cc1 | > 100 | 42.1 |  | > 88.2 | > 100 | 5.28 | > 78.1 | 24.1 | > 65 | 33.9 |  |  |  |  | 
COc1ccc2cc(/C=N/NC(=O)Nc3ccccc3)ccc2c1 | > 100 | > 100 |  | > 100 | > 100 | > 100 | > 100 | > 100 |  |  |  |  |  |  | 
